Source: PMC548150, “Reversal of a full-length mutant huntingtin neuronal cell phenotype by chemical inhibitors of polyglutamine-mediated aggregation” (BMC Neuroscience, 2005)
Several values for one entry are separate records, joined by “and”; a condition that tells them apart may be missing. Identical values can stand only once. Entries after “also recorded” stand apart in the source; their conditions may differ. Like-named read-outs stand apart in the source and are kept apart here.

Tests used:
[1] = target: T1, Q58-htn 1–171 amino terminal fragment (GST-Q58-Htn cleaved by thrombin) (Homo sapiens, UniProt P42858, INS38QQQQQQQQQQQQQQQQQQQQQQQQQQQQQQQQQQQQQ); experiment: in vitro aggregation of amino-terminal mutant huntingtin fragment (filter retardation dot blot); assay type: biochemical
T1 construct: the amino terminal fragment 1–171 of mutant huntingtin; GST (N, cleaved yes); made in house; host or cells: E. coli BL21 (pGEX-2TK vector)
Procedure: In our primary screen (Figure 1A), GST-Q58-Htn (20 μg/ml) was mixed with thrombin (0.5 unit/μg GST-Q58-Htn) and immediately dispensed into a 96-well PCR plate containing compounds diluted to a final concentration of 100 μM. Incubation was continued for 24 hours at room temperature to allow aggregate formation. The aggregation was stopped by 2% SDS/10 mM 2-mercaptoethanol followed by boiling for 5 minutes. The mixture was filtered through a cellulose acetate membrane by using a 96-well ELIFA dot blot apparatus. The aggregates retained on the membrane were detected and quantified by immunoblotting and subsequent image analysis. Congo Red, a known huntingtin aggregation inhibitor, was used as the positive control.
A recombinant pGEX-2TK expression vector with cDNA fragment encoding amino terminal 171 amino acids of human huntingtin with a polyglutamine tract of 58 was used to prepare the GST-Q58-htn fusion protein. The GST-Q58-htn was overexpressed in BL21 cells and purified by affinity chromatography over glutathione-sepharose 4B beads (Amersham Pharmacia Biotech). The purified proteins were stored at concentration of 2.0 mg/ml at -80°C.
For primary screening of the chemical library, 1 μl of 4.0 mM small compound stock, diluted from the original plates, was placed in wells of 96-well plates. The fusion protein, GST-Q58-Htn was mixed with thrombin (0.5 unit/1 μg protein) at a concentration of 20 μg/ml in a buffer of 50 mM Tris-HCl, pH 8.0, 100 mM NaCl, 2.5 mM CaCl2, 1.0 mM EDTA. The mixture was immediately distributed into the 96-well plates containing diluted compounds at 40 μl/well and mixed well. The final concentration of the small compounds was 100 μM. After 24 hours incubation at room temperature, the reaction was stopped by adding 10 μl of 10% SDS/50 mM 2-mercaptoethanol to each well followed by boiling in a PCR machine for 5 minutes. The mixture from each well was filtered through a cellulose acetate membrane ((0.2 μm, GE Osmonics labstore, Minnetonka MN) by using a 96-well ELIFA (Pierce Biotech). The aggregates retained on the membrane were detected by a specific anti-huntingtin antibody, HP1 (diluted 1:1000), followed by incubation with peroxidase conjugated anti-rabbit antibody (diluted 1:10,000, Sigma). Signals from SDS insoluble aggregates were scanned and quantified by using ImageMaster Totalab image analysis software (Amersham Pharmacia Biotech). In the secondary screening, all steps were the same except the final concentration of compound in each well was reduced to 10 μM and the GST-Q58-Htn/thrombin mixture was preincubated for 45-minutes at room temperature and clarified by centrifugation at 28,000 × g for 30 minutes before being added to the test wells. For IC50 determinations, the in vitro aggregation assay and signal quantification were performed as in the second screening but varying the final concentration of input drug. The data for each inhibitor were obtained from at least two independent experiments in which every sample was analyzed in triplicate with Prism 3.0 software (Graphpad Software, Inc., San Diego, CA).

[2] = test system: ST111/111 striatal cells (Hdh^Q111/Q111, full-length mutant huntingtin); experiment: striatal cell line assay: huntingtin localization phenotype (AP229 immunostaining, confocal); assay type: cell-based, mouse; settings: for Percentage of ST111/111 cells showing cytoplasmic/nuclear huntingtin localization comparable to wild-type ST7/7 cells: 30 min at 33°C, mean ± SD of 5–10 fields; for reversal of the mutant huntingtin localization phenotype (in words): 0.5–50 μM tested
Description: To test the hypothesis that compounds, which inhibit the aggregation-promoting property of amino-terminal mutant huntingtin will also rescue effects of full-length mutant huntingtin, we tested the top six inhibitors in a striatal cell-based assay. Mutant Hdh^Q111/Q111 and wild-type Hdh^Q7/Q7 striatal cell lines, […], which have been prepared by transformation with a tsSV40 vector, can be propagated in culture and used for cytological and biochemical comparisons. These cells express full-length mutant or wild-type huntingtin, respectively, with no evidence of truncated amino-terminal fragments, no formation of polyglutamine aggregates and no cell death-producing toxicity. However, like the striatal neurons of Hdh^Q111/Q111 knock-in mice, the ST111/111 cells show nuclear staining of huntingtin when tested with an amino-terminal huntingtin antibody that is sensitive to the conformation of the full-length protein (Figure 5A). By contrast, ST7/7 cells expressing wild type huntingtin show both nuclear and cytoplasmic immunostaining with the same huntingtin antibody (Figure 5A).
Conditionally immortalized wild-type Hdh^Q7/Q7 striatal neuronal progenitor cells (ST7/7) expressing endogenous normal huntingtin, and homozygous Hdh^Q111/Q111 striatal neuronal progenitor cells (ST111/111), expressing endogenous mutant huntingtin with 111-glutamines, have been described previously. The striatal cell lines were grown at 33°C in Dulbecco's modified Eagle's medium (DMEM) supplemented with 10 % fetal bovine serum (FBS), 1% nonessential aminoacids, 2 mM L-glutamine and 400 μg/ml G418 (Geneticin (GIBCO-BRL, Life Technologies, Gaithersburg, MD).
(§1) In the immunofluorescence and confocal analysis experiment, wild-type ST7/7 and homozygous mutant ST111/111 cells, grown to confluence on glass coverslips, were treated with 6 different drugs at four different concentrations (0.5, 5, 10 or 50 μM) for 30 min at 33°C. After the treatment the drugs were removed and the cells washed twice in PBS. The cells were then fixed by incubation in 4% formaldehyde for 15 min, permeabilized by 0.1% Triton X-100 for 5 min and incubated for 30 min with blocking solution (1% bovine albumin in PBS). Coverslips were then incubated in primary antibody (AP229 1:500 dilution) for 2 h at room temperature and washed three times in PBS before a further 1 h in blocking solution containing the secondary antibody (goat anti-rabbit Cy3, Jackson ImmunoResearch, West Grove, PA. USA). After three washes in PBS coverslips were mounted onto glass slides with Vectashield (Burlingame, CA. USA) and the images were analyzed with a laser confocal microscope (Bio-Rad, Hercules, CA. USA) using 20 × objective. Cell death was quantified by scoring the percentage of cells with apoptotic nuclear morphology, i.e. condensed or fragmented nuclei, under the confocal microscope. In each case five to ten randomly selected fields were counted, comprising at least 200 cells, and each experiment was repeated 3 times.

[3] = test system: HEK 293T cells expressing androgen receptor with 112 glutamines; settings: cited from earlier work
[4] = test system: ST111/111 striatal cells; assay type: cell-based; settings: for percentage of dead cells: mouse, 30 min
Procedure: as §1, with “After” for “In the immunofluorescence and confocal analysis experiment, wild-type ST7/7 and homozygous mutant ST111/111 cells, grown to confluence on glass coverslips, were treated with 6 different drugs at four different concentrations (0.5, 5, 10 or 50 μM) for 30 min at 33°C. After”

[5] = GST-Q58-Htn 20 μg/ml pre-incubated with thrombin, 24 h room temperature, average of at least two independent experiments, read-out: IC50 (half-maximal inhibition) of Q58-Htn aggregation

T1 sequence (P42858 with tags, fused parts or gaps with the stated changes limits assumed): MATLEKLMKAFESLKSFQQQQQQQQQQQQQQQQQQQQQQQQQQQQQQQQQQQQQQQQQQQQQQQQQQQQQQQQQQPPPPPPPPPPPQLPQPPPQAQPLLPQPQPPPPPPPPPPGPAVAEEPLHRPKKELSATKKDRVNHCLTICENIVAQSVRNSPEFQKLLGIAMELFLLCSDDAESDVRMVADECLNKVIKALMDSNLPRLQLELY

Molecule: O=C1C=CC(=O)c2c(O)cccc21 [Juglone]
- IC50 [1, 5]: < 6 µM and < 15 µM and 2.67 µM
- Percentage of ST111/111 cells showing cytoplasmic/nuclear huntingtin localization comparable to wild-type ST7/7 cells ([2]; 0.5 μM): 10.4 ± 12.4%
- Percentage of ST111/111 cells showing cytoplasmic/nuclear huntingtin localization comparable to wild-type ST7/7 cells ([2]; 5 μM): 37.9 ± 19.9%
- Percentage of ST111/111 cells showing cytoplasmic/nuclear huntingtin localization comparable to wild-type ST7/7 cells ([2]; 10 μM): 68% and 68.8 ± 18.4%
- reversal of the mutant huntingtin localization phenotype (in words) [2]: reversed the mutant phenotype in a dose-dependent manner; also recorded: effective

Molecule: O=C1c2c(O)cccc2Cc2cccc(O)c21 [Anthralin]
- IC50 [1, 5]: < 15 µM and 10.5 µM
- Percentage of ST111/111 cells showing cytoplasmic/nuclear huntingtin localization comparable to wild-type ST7/7 cells ([2]; 0.5 μM): 4.6 ± 7.6%
- Percentage of ST111/111 cells showing cytoplasmic/nuclear huntingtin localization comparable to wild-type ST7/7 cells ([2]; 5 μM): 6.6 ± 9.7%
- Percentage of ST111/111 cells showing cytoplasmic/nuclear huntingtin localization comparable to wild-type ST7/7 cells ([2]; 10 μM): 9.6 ± 12.1%
- Percentage of ST111/111 cells showing cytoplasmic/nuclear huntingtin localization comparable to wild-type ST7/7 cells ([2]; 50 μM): 11.8 ± 14.4%
- reversal of the mutant huntingtin localization phenotype (in words) [2]: little effect; also recorded: not effective

Molecule: C[n+]1cc2c3c(ccc2c2ccc4cc5c(cc4c21)OCO5)OCO3 [Sanguinarine nitrate]
- effect on caspase 3 activation [3]: blocked caspase 3 activation
- percentage of dead cells ([4]; 0.5 μM): 4.3%
- percentage of dead cells ([4]; 5 μM): 5.5%
- percentage of dead cells ([4]; 10 μM): 22.5%
- IC50 [1, 5]: < 6 µM and < 15 µM and 5.7 µM
- Percentage of ST111/111 cells showing cytoplasmic/nuclear huntingtin localization comparable to wild-type ST7/7 cells ([2]; 0.5 μM): 0%
- Percentage of ST111/111 cells showing cytoplasmic/nuclear huntingtin localization comparable to wild-type ST7/7 cells ([2]; 5 μM): 3.7 ± 5.2%
- Percentage of ST111/111 cells showing cytoplasmic/nuclear huntingtin localization comparable to wild-type ST7/7 cells ([2]; 10 μM): 0%
- reversal of the mutant huntingtin localization phenotype (in words) [2]: little effect
- reversal of the mutant huntingtin localization phenotype (in words) ([2]; listed as sanguinarine): not effective

Molecule: Nc1c(/N=N/c2ccc(-c3ccc(/N=N/c4cc(S(=O)(=O)O)c5ccccc5c4N)cc3)cc2)cc(S(=O)(=O)O)c2ccccc12 [Congo Red]
- inhibition of Q58-Htn aggregation ([1]; 10 μM, positive control): completely inhibit

Molecule: CC(C)=CCC[C@]1(C)C=Cc2c(O)c3c(c(CC=C(C)C)c2O1)O[C@]12C(=C[C@@H]4C[C@H]1C(C)(C)O[C@@]2(C/C=C(/C)C(=O)O)C4=O)C3=O [Gambogic acid]
- effect on caspase 3 activation [3]: blocked caspase 3 activation
- toxicity in the HEK 293T assay [3]: showed toxicity
- IC50 [1, 5]: < 6 µM and < 15 µM and 0.87 µM
- residual aggregate formed ([1]; at the maximum concentration of the dose response (0.01 μM to 500 μM)): approximately 20%
- Percentage of ST111/111 cells showing cytoplasmic/nuclear huntingtin localization comparable to wild-type ST7/7 cells ([2]; 0.5 μM): 1 ± 2.6%
- Percentage of ST111/111 cells showing cytoplasmic/nuclear huntingtin localization comparable to wild-type ST7/7 cells ([2]; 5 μM): 0%
- reversal of the mutant huntingtin localization phenotype (in words) [2]: not effective

Molecule: N=C1C=CC(=C(c2ccc(N)cc2)c2ccc(N)cc2)C=C1 [Pararosaniline pamoate]
- IC50 [1, 5]: 14.9 µM

Molecule: Tyrothricin
- effect on caspase 3 activation [3]: blocked caspase 3 activation
- toxicity in the HEK 293T assay [3]: showed toxicity
- IC50 [1, 5]: 14.7 µM

Molecule: Cc1cc2c(C(C)C)c(O)c(O)c(C=O)c2c(O)c1-c1c(C)cc2c(C(C)C)c(O)c(O)c(C=O)c2c1O [Gossypol-acetic acid]
- cell toxicity (in words) ([4]; tested up to 50 μM): no toxicity
- IC50 [1]: < 6 µM and < 15 µM and 0.65 µM
- Percentage of ST111/111 cells showing cytoplasmic/nuclear huntingtin localization comparable to wild-type ST7/7 cells ([2]; 0.5 μM): 0%
- Percentage of ST111/111 cells showing cytoplasmic/nuclear huntingtin localization comparable to wild-type ST7/7 cells ([2]; 5 μM): 4.5 ± 4.3%
- Percentage of ST111/111 cells showing cytoplasmic/nuclear huntingtin localization comparable to wild-type ST7/7 cells ([2]; 10 μM): 3.5 ± 3.5%
- Percentage of ST111/111 cells showing cytoplasmic/nuclear huntingtin localization comparable to wild-type ST7/7 cells ([2]; 50 μM): 15.9 ± 11.1%
- Percentage of ST111/111 cells showing cytoplasmic/nuclear huntingtin localization comparable to wild-type ST7/7 cells ([2]; 50 μM, listed as Gossypol acetic acid complex): 15%
- reversal of the mutant huntingtin localization phenotype (in words) [2]: not effective
- reversal of the mutant huntingtin localization phenotype (in words) ([2]; listed as Gossypol acetic acid complex): less effective

Molecule: C=C1c2c(Cl)ccc(O)c2C(=O)C2=C(O)[C@]3(O)C(=O)C(C(N)=O)=C(O)[C@@H](N(C)C)[C@@H]3[C@@H](O)[C@H]12 [Meclocycline sulfosalicylate]
- IC50 [1, 5]: 14.8 µM

Molecule: CO[C@H]1C[C@H](O[C@@H]2/C(C)=C/C[C@@H]3C[C@@H](C[C@]4(CC[C@H](C)[C@@H](C5CCCCC5)O4)O3)OC(=O)[C@@H]3C=C(C)/C(=N/O)[C@H]4OC/C(=C\C=C\[C@@H]2C)[C@]43O)O[C@@H](C)[C@@H]1O [Selamectin]
- IC50 [1]: 12.4 µM
